Assay: gradient 5% acetonitrile 3 min, to 50% in 2 min, to 85% in 15 min, held 3 min, 100 µL/min
Conditions: column: Zorbax Extend-C18 2.1 x 50 mm; eluents: water / acetonitrile, 0.1% formic acid
Procedure, shortened: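 The system's dead and dwell volumes were 40 μL and 900 μL, with a Zorbax Extend-C18 column (2.1 × 50 mm, 1.8 μm) run at 100 μL/min in water and acetonitrile containing 0.1% formic acid each. Pure standards were analyzed in mixtures of ~100 molecules by HPLC–quadrupole time-of-flight mass spectrometry in positive and negative ionization mode. Retention time was assigned from computationally picked, manually inspected adduct peaks.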

Row | Structure (SMILES) | RP-LC retention time [s]
1 | Cc1ccc(-c2cn3ccn(-c4cccc(F)c4)c(=O)c3n2)cc1C | 873
2 | COc1ccc(CN2CCNCC2)c(OC)c1OC | 578
3 | O=C(c1ccncc1)N1CC(C(=O)N2CCSCC2)C2(CCCCC2)C1 (stereo not given) | 620
4 | COc1ccc(Br)cc1CNC(=O)Cn1cnc2onc(C)c2c1=O | 815
5 | CCOCCCNC(=O)Cn1ncc2c(N3CCN(c4ccccn4)CC3)ncnc21 | 565
6 | NS(=O)(=O)c1ccc(CCNC(=O)c2ccc3c(c2)NC(=O)C2CCCCN32)cc1 (stereo not given) | 672
7 | COC(=O)c1cc(C2CC2)nc2c1c(=O)n(Cc1ccccc1Cl)c(=O)n2C | 1130
8 | O=C(N1CCC(Cc2noc(-c3ccc(F)cc3)n2)C1)C1(c2ccccc2)CC1 (stereo not given) | 1010
9 | COc1ccc(CN2C=C(C(=O)OCc3noc(C4CCCCC4)n3)C(C)=NS2(=O)=O)cc1 | 1150
10 | O=C(Nc1ccc(Br)cc1F)C1CCN(S(=O)(=O)Cc2ccccc2)CC1 | 1000
11 | CCCn1c(CCNC(=O)c2cc(C)cc(C)c2)nc2cccnc21 | 716
12 | O=C1N(c2ccccc2)CC12CCN(S(=O)(=O)c1ccccc1)CC2 | 957
13 | Cc1cccc(S(=O)(=O)Nc2ccc3c(c2)CCC(=O)N3C)c1 | 758
14 | CCOC(=O)C1CCN(c2nc(-c3ccc(Cl)cc3)nc3ccccc23)CC1 | 936
15 | COc1ccc(C2(C(=O)N3CC(n4c(C)cnc4-c4ccccc4)C3)CC2)cc1 | 661
16 | CCc1nc2cc(-c3noc(Cc4ccccc4Br)n3)ccc2o1 | 1220
17 | CC(=O)c1cccc(NC(=O)c2cccc3ccccc23)c1 | 840
18 | COc1ccc(-c2cc(N3CCC(NC(=O)c4ccccc4Br)C3)n[nH]2)cc1 (stereo not given) | 688
19 | COc1cc(OC)cc(C(=O)Nc2cccc(C(C)=O)c2)c1 | 753
20 | O=C(CSc1ccc(F)cc1)NCC(O)(c1ccccc1)C(F)(F)F (stereo not given) | 887
21 | Nc1cc(C2CCN(C(=O)c3ccc(F)cc3)CC2)no1 | 675
22 | COc1cccc(-c2nc(C3CCN(C(=O)C4COc5ccccc5O4)CC3)no2)c1 (stereo not given) | 1060
23 | Cc1ccc(CNC(=O)N2CCC(N3CCN(Cc4ccccc4)C(=O)C3=O)CC2)cc1 | 768

Row | Structure (SMILES) | RP-LC retention time [s]
24 | Cc1ccc(-c2cn3c(CC(=O)Nc4ccc(F)cc4F)csc3n2)cc1C | 861
25 | Cc1cccc(NC(=O)C2CCN(S(C)(=O)=O)c3cc(C)ccc3O2)c1 (stereo not given) | 943
26 | O=C(Nc1cc(-c2ccsc2)no1)c1ccc(F)c(F)c1 | 982
27 | Cc1nn(C)c2nc(OC(C)C(=O)Nc3ccccc3F)cc(C(F)(F)F)c12 (stereo not given) | 1050
28 | COc1ccc(NC(=O)C2CCN(S(=O)(=O)c3ccc4c(c3)CCCC(=O)N4)CC2)cc1Cl | 782
29 | CCOc1ccc(-n2ccnc(NC(=O)Nc3ccc(F)cc3)c2=O)cc1 | 985
30 | Cn1cnc2ccc(-c3noc(-c4ccc(Br)cc4)n3)cc21 | 848
31 | COc1ccc(OC)c2sc(NC(=O)c3ccc(S(=O)(=O)N4CCCC4)cc3)nc12 | 872
32 | CCOCC(=O)Nc1ccc(CC(=O)NCC(F)(F)F)cc1 | 644
33 | CCc1nc(-c2csc(S(=O)(=O)N3CCC(C(=O)Nc4ccc(F)cc4)CC3)c2)no1 | 962
34 | COc1ccc(N2CCN(c3ncccc3-c3nc(C)no3)CC2)cc1 | 736
35 | Cc1cccc(C)c1NC(=O)C1CCN(S(C)(=O)=O)c2cc(Cl)ccc2O1 (stereo not given) | 919
36 | COc1ccccc1NC(=O)c1ccc(CSc2ncccn2)cc1 | 603
37 | CCOc1ccc(NC(=O)Cn2c(N)nc(C)cc2=O)cc1 | 574
38 | CCn1nc(C)n2cc(S(=O)(=O)NCc3ccco3)cc2c1=O | 779
39 | O=C(Cc1ccccc1)NCC(=O)NC(C(=O)N1CCCc2ccccc21)c1ccccc1 (stereo not given) | 875
40 | Cc1ccc(C(C)NC(=O)c2cn3c(n2)COCC3)c(C)c1 (stereo not given) | 667
41 | Cc1cc(F)ccc1NC(=O)c1cn2c(n1)CCCC2 | 600
42 | Cc1cc(N2CCN(c3ccccn3)CC2)n2nc(C(F)(F)F)c(-c3ccc(F)cc3)c2n1 | 870
43 | c1ccn(CCc2ccncc2)c1 | 616
44 | CN(CCCNC(=O)C1CCCN(c2ncnc3c2nc2n3CCCCC2)C1)Cc1ccccc1 (stereo not given) | 616
45 | COC(=O)c1c(NCc2ccc(OC)cc2)c2cccc(Cl)c2[nH]c1=O | 788
46 | CC(C)n1c(CN2CCN(C)CC2)nc2cc(NC(=O)c3cccs3)ccc21 | 565

Row | Structure (SMILES) | RP-LC retention time [s]
47 | COc1cccc(-c2nnc(SCC(=O)NCc3cccnc3)n2-c2ccccc2)c1 | 573
48 | Cc1cc(C(=O)N2CCOCC2)nn1CC(=O)Nc1nc2ccccc2s1 | 683
49 | Cn1cc(-c2ccncc2)cc1C(=O)N1CCN(c2ccccc2Cl)CC1 | 671
50 | CN(C)C(=O)Cn1c(=O)c2cccn2c2ccc(F)cc21 | 690
51 | O=C(Cn1cnc(-c2cccs2)cc1=O)NCCn1nc(-c2cccs2)ccc1=O | 666
52 | CC(NC(=O)c1ccccc1)c1nc(-c2ccc3c(c2)nnn3C2CCCC2)no1 (stereo not given) | 964
53 | CCc1nc(-c2cc(S(=O)(=O)Nc3cc(C)ccc3C)c(C)s2)cs1 | 1160
54 | CCc1nnc(NS(=O)(=O)c2ccc(NC(=O)c3ccco3)cc2)s1 | 680
55 | COCCCNC(=O)c1ccc2nc(CCc3ccc(NC(C)=O)cc3)[nH]c2c1 | 567
56 | Cc1nc(-c2cc3ccccc3nc2N2CCN(C(=O)Cc3ccccc3)CC2)no1 | 934
57 | Cc1cc(N2CCN(S(=O)(=O)c3cc(F)ccc3F)CC2)nc(N2CCCC2)n1 | 717
58 | Cc1nnc(-c2ccc3ccn(CC(=O)Nc4ccc(F)c(F)c4)c3c2)o1 | 829
59 | CCCN(CC1CCOC1)C(=O)Nc1cccc(SC)c1 (stereo not given) | 831
60 | CC(C)CN1C(=O)c2cccn2CC1CNC(=O)c1cccn1C (stereo not given) | 733
61 | COc1ccc(N2CCN(c3cc(SCC(=O)Nc4cccc(C#N)c4)ncn3)CC2)cc1 | 895
62 | COc1cc2nc(C(=O)N3CCC(C)CC3)cc(Nc3cccc(SC)c3)c2cc1OC | 776
63 | CCC1Oc2ccc(S(=O)(=O)N3CCC(C(=O)Nc4ccc(C)cc4C)CC3)cc2NC1=O (stereo not given) | 868
64 | O=c1c2nc(-c3ccc(F)cc3)cn2ccn1-c1ccc(Cl)cc1 | 867
65 | O=C(CN1CCN(Cc2cccc(Cl)c2)C1=O)NCc1ccc(C(F)(F)F)cc1 | 931
66 | Cc1ccc2c(Nc3cccc(Cl)c3)c(C(=O)N3CCOCC3)cnc2n1 | 606
67 | O=c1ccc(-c2ccc(F)cc2)nn1CCc1nc(-c2ccncc2)no1 | 758
68 | CCCC1c2nccn2CCCN1C(=O)c1occc1C (stereo not given) | 611
69 | O=C1COc2ccccc2N1Cc1nc(-c2ccc3c(c2)OCO3)no1 | 934

Row | Structure (SMILES) | RP-LC retention time [s]
70 | CCc1noc(-c2nnn3c2COC(c2ccc(OC)cc2)C3)n1 (stereo not given) | 941
71 | CCOc1ccccc1NC(=O)N1CCN(C(=O)N2C[C@H]3C[C@@H](C2)[C@H]2CCCC(=O)N2C3)CC1 | 687
72 | O=C(N[C@@H]1CN(Cc2cc(F)c(F)cc2F)C[C@H]1CO)C1CCC1 | 599
73 | O=C(CN1C(=O)C2CCCCN2c2ccc(S(=O)(=O)N3CCCC3)cc21)NCc1ccccc1 (stereo not given) | 921
74 | c1ccc(OCc2nc3ccccc3n2CC2CCN(Cc3ccccn3)CC2)cc1 | 559
75 | O=C(Nc1ccc(-c2nnc3n2CCCC3)cc1)c1ccc2c(c1)OCO2 | 661
76 | c1cc(CN2CC(Oc3ccc(-c4noc(C5CC5)n4)cc3)C2)cs1 | 700
77 | Cc1cccc(NC(=O)N2CCN(c3nc4ccccc4nc3C(F)(F)F)CC2)c1C | 1100
78 | CCOC(=O)c1c(C)oc2nc(C)nc(NCCCN3CCN(c4cccc(C)c4)C(C)C3)c12 (stereo not given) | 778
79 | CN(C)c1ccc2c(c1)CN(C(=O)c1ccsc1)CCO2 | 586
80 | CCCN(C)c1nccnc1OC1CCN(C(=O)C2CCC2)C1 (stereo not given) | 765
81 | Cc1ccc(C2Cn3nnc(C(=O)N4CCC(C(=O)NC5CC5)CC4)c3CO2)cc1 (stereo not given) | 733
82 | Cc1noc(C2(NC(=O)c3sccc3C)CCCCC2)n1 | 882
83 | COCCC1CCN(C(=O)COc2ccc(OC)cc2)CC1 | 768
84 | Cc1ccc(-n2cc3c(N4CCCC(C(=O)NC(C)c5ccc(F)cc5)C4)ncnc3n2)cc1 (stereo not given) | 741
85 | COc1ccc(C(=O)N2CCC3(CC2)NCc2ccccc2-n2ccnc23)cc1OC | 594
86 | Cc1ccc(NC(=O)NCC(c2cccnc2)c2cn(C)c3ccccc23)c(C)c1 (stereo not given) | 720
87 | O=C([C@@H]1C[C@H](F)CN1C(=O)Nc1cc(F)cc(F)c1)N1CCCCC1 | 766
88 | N#Cc1ccc(CN2CCC3(CCC3O)CC2)cc1 (stereo not given) | 570
89 | Cc1ccc(-n2c(=O)n(CC(=O)NCCN3CCOCC3)c3cccnc32)cc1 | 596
90 | COc1ccc(-c2noc(C3CCCN3C(=O)c3cccc(F)c3)n2)cc1 (stereo not given) | 946
